Consider one compound from PubChem BioAssay AID1259411 (Chemical Carcinogenesis Research Information System (CCRIS), 2018).

The data set deals with rodent carcinogenicity bioassays, tumor incidence. Nature of the data set: CCRIS carcinogenicity studies. Particulars: Route: ORAL, Dose: 0, 12000, Dose: 0, 12000. A digest of the protocol: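 Archive of carcinogenicity, mutagenicity, tumor promotion and tumor inhibition results drawn from journals, NCI reports and other sources, expert-reviewed; covers 1985-2011 and is no longer updated.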

SMILES strings stand for the structures. Activity calls are given as the source filed them. The rule behind the calls is not given here.

In the case of `CCCCC(CC)COC(=O)CCCCC(=O)OCC(CC)CCCC` (stereo not drawn), the carcinogen call (Species: MOUSE, Strain/Sex: B6C3F1/FEMALE, 25000 PPM IN DIET FOR 102-104 WK (STUDY DURATION: 102-104 WK), 25000 PPM IN DIET FOR 102-104 WK (STUDY DURATION: 102-104 WK), Tumor Site: Type of Lesion: LIVER: CARCINOMA, CARCINOMA OR ADENOMA) is “active; positive”; the carcinogen call (Species: MOUSE, Strain/Sex: B6C3F1/FEMALE, 25000 PPM IN DIET FOR 103 WK (STUDY DURATION: 105-106 WK), 25000 PPM IN DIET FOR 103 WK (STUDY DURATION: 105-106 WK), Tumor Site: Type of Lesion: LIVER: HEPATOCELLULAR CARCINOMA) was “active; positive”; the carcinogen call (Species: MOUSE, Strain/Sex: B6C3F1/MALE, 25000 PPM IN DIET FOR 102-104 WK (STUDY DURATION: 102-104 WK), 25000 PPM IN DIET FOR 102-104 WK (STUDY DURATION: 102-104 WK), Tumor Site: Type of Lesion: LIVER: CARCINOMA OR ADENOMA) was “active; positive”; the carcinogen call (Species: MOUSE, Strain/Sex: B6C3F1/MALE, 25000 PPM IN DIET FOR 103 WK (STUDY DURATION: 104-106 WK), 25000 PPM IN DIET FOR 103 WK (STUDY DURATION: 104-106 WK), Tumor Site: Type of Lesion: LIVER: HEPATOCELLULAR CARCINOMA, HEPATOCELLULAR ADENOMA OR CARCINOMA) is “active; positive”; the carcinogen call (Species: RAT, Strain/Sex: F344/FEMALE, 25000 PPM IN DIET FOR 102-104 WK (STUDY DURATION: 102-104 WK), 25000 PPM IN DIET FOR 102-104 WK (STUDY DURATION: 102-104 WK)) is “inactive; negative”; the carcinogen call (Species: RAT, Strain/Sex: F344/FEMALE, 25000 PPM IN DIET FOR 103 WK (STUDY DURATION: 104-107 WK), 25000 PPM IN DIET FOR 103 WK (STUDY DURATION: 104-107 WK)) is “inactive; negative”. Further, the carcinogen call runs as follows: (Species: RAT, Strain/Sex: F344/MALE, 25000 PPM IN DIET FOR 102-104 WK (STUDY DURATION: 102-104 WK), 25000 PPM IN DIET FOR 102-104 WK (STUDY DURATION: 102-104 WK)) “inactive; negative”; (Species: RAT, Strain/Sex: F344/MALE, 25000 PPM IN DIET FOR 103 WK (STUDY DURATION: 104-107 WK), 25000 PPM IN DIET FOR 103 WK (STUDY DURATION: 104-107 WK)) “inactive; negative”.
